Results published in ChEMBL document CHEMBL4033614, “Antineoplastic Agents. 603. Quinstatins: Exceptional Cancer Cell Growth Inhibitors” (2017).
Square brackets hold non-standard residues; d marks the D form. Peptide text beside a SMILES is read from it. * marks the point of attachment. Dolaproine = CO[C@@H]([C@@H]1CCCN1)[C@@H](C)C(=O)O; Dil = CC[C@H](C)[C@H](NC)[C@@H](CC(=O)O)OC; X1 = C[C@@H](N*)[C@@H](O)c1ccccc1; NMeV = CN[C@H](C(=O)O)C(C)C

Assays:
SF-268 = assay: Growth inhibition of human SF268 cells incubated for 48 hrs by sulforhodamine B assay; details: SF-268, 48 h
MCF7 = assay: Growth inhibition of human MCF7 cells incubated for 48 hrs by sulforhodamine B assay; details: MCF7, 48 h
KM-20L2 = assay: Growth inhibition of human KM20L2 cells incubated for 48 hrs by sulforhodamine B assay; details: KM-20L2, 48 h
NCI-H460 = assay: Growth inhibition of human NCI-H460 cells incubated for 48 hrs by sulforhodamine B assay; details: NCI-H460, 48 h
BXPC-3 [1] = assay: Growth inhibition of human BxPC3 cells incubated for 48 hrs by MTT assay; assay type: functional; details: BXPC-3, 48 h
DU-145 = assay: Growth inhibition of human DU145 cells incubated for 48 hrs by sulforhodamine B assay; details: DU-145, 48 h
BXPC-3 [2] = assay: Growth inhibition of human BxPC3 cells incubated for 48 hrs by sulforhodamine B assay; details: BXPC-3, 48 h

Compound | GI50 (SF-268) | GI50 (MCF7) | GI50 (KM-20L2) | GI50 (NCI-H460) | GI50 (BXPC-3 [1]) | GI50 (DU-145) | GI50 (BXPC-3 [2])
CC[C@H](C)[C@@H]([C@@H](CC(=O)N1CCC[C@H]1[C@H](OC)[C@@H](C)C(=O)N[C@H](C)[C@@H](O)c1ccccc1)OC)N(C)C(=O)[C@@H](NC(=O)[C@H](C(C)C)N(C)C)C(C)C | 0.492 nM | 0.232 nM | 0.492 nM | 0.533 nM | > 1.37 nM | 0.424 nM | 
CC[C@H](C)[C@@H]([C@@H](CC(=O)N1CCC[C@H]1[C@H](OC)[C@@H](C)C(=O)NCCc1ccc2ncccc2c1)OC)N(C)C(=O)[C@@H](NC(=O)[C@H](C(C)C)N(C)C)C(C)C | 0.399 nM | 0.532 nM | 0.518 nM | 5.71 nM | 2.66 nM | 0.399 nM | 
CC[C@H](C)[C@@H]([C@@H](CC(=O)N1CCC[C@H]1[C@H](OC)[C@@H](C)C(=O)N[C@H](C)[C@@H](O)c1ccccc1)OC)N(C)C(=O)[C@@H](NC(=O)[C@@H](NC)C(C)C)C(C)C (H-[NMeV]V[Dil][Dolaproine]-X1) | 0.432 nM | 0.404 nM | 0.599 nM | 0.683 nM | > 1.39 nM | 0.418 nM | 
CC[C@H](C)[C@@H]([C@@H](CC(=O)N1CCC[C@H]1[C@H](OC)[C@@H](C)C(=O)NCCc1cccc2cccnc12)OC)N(C)C(=O)[C@@H](NC(=O)[C@H](C(C)C)N(C)C)C(C)C | 0.03 nM | 0.053 nM | 0.053 nM | 1.19 nM |  | 0.053 nM | 0.425 nM
CC[C@H](C)[C@@H]([C@@H](CC(=O)N1CCC[C@H]1[C@H](OC)[C@@H](C)C(=O)NCCc1ccc2cccnc2c1)OC)N(C)C(=O)[C@@H](NC(=O)[C@H](C(C)C)N(C)C)C(C)C | 0.032 nM | 0.039 nM | 0.054 nM | 14.6 nM | 4.12 nM | 0.04 nM | 
CC[C@H](C)[C@@H]([C@@H](CC(=O)N1CCC[C@H]1[C@H](OC)[C@@H](C)C(=O)NCCc1cnc2ccccc2c1)OC)N(C)C(=O)[C@@H](NC(=O)[C@H](C(C)C)N(C)C)C(C)C | 0.385 nM | 0.305 nM | 0.532 nM | 41.2 nM | 27.9 nM | 0.266 nM | 
CC[C@H](C)[C@@H]([C@@H](CC(=O)N1CCC[C@H]1[C@H](OC)[C@@H](C)C(=O)NCCc1ccc2ccccc2n1)OC)N(C)C(=O)[C@@H](NC(=O)[C@H](C(C)C)N(C)C)C(C)C | 0.31 nM | 0.412 nM | 0.438 nM | 6.77 nM | 12.4 nM | 0.412 nM | 
CC[C@H](C)[C@@H]([C@@H](CC(=O)N1CCC[C@H]1[C@H](OC)[C@@H](C)C(=O)NCCc1cccc2ncccc12)OC)N(C)C(=O)[C@@H](NC(=O)[C@H](C(C)C)N(C)C)C(C)C | 0.146 nM | 0.097 nM | 0.305 nM | 6.37 nM | 2.79 nM | 0.172 nM | 
CC[C@H](C)[C@@H]([C@@H](CC(=O)N1CCC[C@H]1[C@H](OC)[C@@H](C)C(=O)NCCc1ccnc2ccccc12)OC)N(C)C(=O)[C@@H](NC(=O)[C@H](C(C)C)N(C)C)C(C)C | 0.252 nM | 0.398 nM | 0.425 nM | 5.71 nM | 5.84 nM | 0.305 nM | 
